Measurements from patent US6355799B1, “Substituted benzene compounds, process for their preparation, and herbicidal and defoliant compositions containing them” (ISK Americas Incorporated, priority 1997, dated 2002).

Experiments:
Type in all cases: in vivo
[1] = tested on: redroot pigweed (Amaranthus retroflexus, AMARE); test: Pre-emerge test, greenhouse herbicide activity screening; conditions: pre-emerge, phytotoxicity rating 0-100 at 14 days after application
How it was run: (§1)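 Sandy loam pots; pre-emerge: sown 1 d pre-spray, surface-watered after, then bottom-watered. Post-emerge: sown 8–21 d before, 2–3 leaf stage, + 0.25% v/v NIS, bottom-watered. Acetone, 187 l/ha track spray, 15–1000 g ai/ha. 0–100 injury score, day 14.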

[2] = tested on: barnyardgrass (Echinochloa crus-galli, ECHCG); test: as above; conditions: pre-emerge, phytotoxicity rating 0-100 at 14 days after application
How it was run: (§2)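 Compounds in acetone were track-sprayed at 15-1000 g ai/ha (187 l/ha) on sandy loam pots: pre-emerge one day after seeding, post-emerge at 2-3 leaf stage with 0.25% v/v non-ionic surfactant. Phytotoxicity was rated 14 days later on a 0 (no damage) to 100 (complete death) scale.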

[3] = tested on: green foxtail (Setaria viridis, SETVI); test: as above; conditions: pre-emerge, phytotoxicity rating 0-100 at 14 days after application
How it was run: as §2

[4] = tested on: ivyleaf morningglory (Ipomoea hederacea, IPOHE); test: as above; conditions: pre-emerge, phytotoxicity rating 0-100 at 14 days after application
How it was run: as §2

[5] = tested on: johnsongrass (Sorghum halepense, SORHA); test: as above; conditions: pre-emerge, phytotoxicity rating 0-100 at 14 days after application
How it was run: as §2

[6] = tested on: lambsquarters (Chenopodium album, CHEAL); test: as above; conditions: pre-emerge, phytotoxicity rating 0-100 at 14 days after application
How it was run: as §2

[7] = tested on: large crabgrass (Digitaria sanguinalis, DIGSA); test: as above; conditions: pre-emerge, phytotoxicity rating 0-100 at 14 days after application
How it was run: as §2

[8] = tested on: sicklepod (Cassia obtusifolia, CASOB); test: as above; conditions: pre-emerge, phytotoxicity rating 0-100 at 14 days after application
How it was run: as §2

[9] = tested on: velvetleaf (Abutilon theophrasti, ABUTH); test: as above; conditions: pre-emerge, phytotoxicity rating 0-100 at 14 days after application
How it was run: as §2

[10] = tested on: field corn (Zea mays L., var. Dekalb 535, CORN); test: Pre-emerge test, crop safety; conditions: crop damage, pre-emerge, phytotoxicity rating 0-100 at 14 days after application
How it was run: as §1

[11] = tested on: upland rice (Oryza sp., var. Tebonnet, RICE); test: Pre-emerge test, crop safety; conditions: crop damage, pre-emerge, phytotoxicity rating 0-100 at 14 days after application
How it was run: as §1

[12] = tested on: barnyardgrass (Echinochloa crus-galli, ECHCG); test: Post-emerge test, greenhouse herbicide activity screening; conditions: post-emerge, phytotoxicity rating 0-100 at 14 days after application
How it was run: (§3)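 Fourteen days after spraying, crop and weed injury was graded visually from 0, no effect, to 100, every plant dead. Test substances were dissolved in acetone and applied at 15–1000 g ai/ha with a flat-fan nozzle. Application was either pre-emergence, one day after sowing, or post-emergence at the 2–3 leaf stage.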

[13] = tested on: green foxtail (Setaria viridis, SETVI); test: as above; conditions: post-emerge, phytotoxicity rating 0-100 at 14 days after application
How it was run: as §3

[14] = tested on: ivyleaf morningglory (Ipomoea hederacea, IPOHE); test: as above; conditions: post-emerge, phytotoxicity rating 0-100 at 14 days after application
How it was run: as §3

[15] = tested on: johnsongrass (Sorghum halepense, SORHA); test: as above; conditions: post-emerge, phytotoxicity rating 0-100 at 14 days after application
How it was run: as §3

[16] = tested on: lambsquarters (Chenopodium album, CHEAL); test: as above; conditions: post-emerge, phytotoxicity rating 0-100 at 14 days after application
How it was run: as §3

[17] = tested on: large crabgrass (Digitaria sanguinalis, DIGSA); test: as above; conditions: post-emerge, phytotoxicity rating 0-100 at 14 days after application
How it was run: as §3

[18] = tested on: redroot pigweed (Amaranthus retroflexus, AMARE); test: as above; conditions: post-emerge, phytotoxicity rating 0-100 at 14 days after application
How it was run: as §3

[19] = tested on: sicklepod (Cassia obtusifolia, CASOB); test: as above; conditions: post-emerge, phytotoxicity rating 0-100 at 14 days after application
How it was run: as §3

[20] = tested on: velvetleaf (Abutilon theophrasti, ABUTH); test: as above; conditions: post-emerge, phytotoxicity rating 0-100 at 14 days after application
How it was run: as §3

[21] = tested on: field corn (Zea mays L., var. Dekalb 535, CORN); test: Post-emerge test, crop safety; conditions: post-emerge, crop damage rating 0-100 at 14 days after application
How it was run: as §2

[22] = tested on: upland rice (Oryza sp., var. Tebonnet, RICE); test: Post-emerge test, crop safety; conditions: post-emerge, crop damage rating 0-100 at 14 days after application
How it was run: as §2

## Cc1c(Cl)cc(F)c(-n2c(=O)cc(C(F)(F)F)n(C)c2=O)c1NC(=O)OCc1ccc(Cl)cc1 [4-61]
[1]; rate 63 g ai/ha
  Pre-emerge Herbicidal Activity AMARE: 100
[1]; rate 250 g ai/ha
  Pre-emerge Herbicidal Activity AMARE: 100
[2]; rate 63 g ai/ha
  Pre-emerge Herbicidal Activity ECHCG: 30
[2]; rate 250 g ai/ha
  Pre-emerge Herbicidal Activity ECHCG: 50
[3]; rate 63 g ai/ha
  Pre-emerge Herbicidal Activity SETVI: 80
[3]; rate 250 g ai/ha
  Pre-emerge Herbicidal Activity SETVI: 75
[4]; rate 63 g ai/ha
  Pre-emerge Herbicidal Activity IPOHE: 30
[4]; rate 250 g ai/ha
  Pre-emerge Herbicidal Activity IPOHE: 60
[5]; rate 63 g ai/ha
  Pre-emerge Herbicidal Activity SORHA: 20
[5]; rate 250 g ai/ha
  Pre-emerge Herbicidal Activity SORHA: 50
[6]; rate 63 g ai/ha
  Pre-emerge Herbicidal Activity CHEAL: 100
[6]; rate 250 g ai/ha
  Pre-emerge Herbicidal Activity CHEAL: 100
[7]; rate 63 g ai/ha
  Pre-emerge Herbicidal Activity DIGSA: 50
[7]; rate 250 g ai/ha
  Pre-emerge Herbicidal Activity DIGSA: 90
[8]; rate 63 g ai/ha
  Pre-emerge Herbicidal Activity CASOB: 40
[8]; rate 250 g ai/ha
  Pre-emerge Herbicidal Activity CASOB: 30
[9]; rate 63 g ai/ha
  Pre-emerge Herbicidal Activity ABUTH: 60
[9]; rate 250 g ai/ha
  Pre-emerge Herbicidal Activity ABUTH: 70
[10]; rate 63 g ai/ha
  Pre-emerge Herbicidal Activity CORN: 0
[10]; rate 250 g ai/ha
  Pre-emerge Herbicidal Activity CORN: 0
[11]; rate 63 g ai/ha
  Pre-emerge Herbicidal Activity RICE: 0
[11]; rate 250 g ai/ha
  Pre-emerge Herbicidal Activity RICE: 50
[12]; 63 g ai/ha
  Post-emerge Herbicidal Activity ECHCG: 40
[12]; 250 g ai/ha
  Post-emerge Herbicidal Activity ECHCG: 60
[13]; 63 g ai/ha
  Post-emerge Herbicidal Activity SETVI: 70
[13]; 250 g ai/ha
  Post-emerge Herbicidal Activity SETVI: 80
[14]; 63 g ai/ha
  Post-emerge Herbicidal Activity IPOHE: 100
[14]; 250 g ai/ha
  Post-emerge Herbicidal Activity IPOHE: 100
[15]; 63 g ai/ha
  Post-emerge Herbicidal Activity SORHA: 50
[15]; 250 g ai/ha
  Post-emerge Herbicidal Activity SORHA: 70
[16]; 63 g ai/ha
  Post-emerge Herbicidal Activity CHEAL: 100
[16]; 250 g ai/ha
  Post-emerge Herbicidal Activity CHEAL: 100
[17]; 63 g ai/ha
  Post-emerge Herbicidal Activity DIGSA: 50
[17]; 250 g ai/ha
  Post-emerge Herbicidal Activity DIGSA: 70
[18]; 63 g ai/ha
  Post-emerge Herbicidal Activity AMARE: 100
[18]; 250 g ai/ha
  Post-emerge Herbicidal Activity AMARE: 100
[19]; 63 g ai/ha
  Post-emerge Herbicidal Activity CASOB: 100
[19]; 250 g ai/ha
  Post-emerge Herbicidal Activity CASOB: 100
[20]; 63 g ai/ha
  Post-emerge Herbicidal Activity ABUTH: 100
[20]; 250 g ai/ha
  Post-emerge Herbicidal Activity ABUTH: 100
[21]; 63 g ai/ha
  Post-emerge Herbicidal Activity CORN: 50
[21]; 250 g ai/ha
  Post-emerge Herbicidal Activity CORN: 70
[22]; 63 g ai/ha
  Post-emerge Herbicidal Activity RICE: 40
[22]; 250 g ai/ha
  Post-emerge Herbicidal Activity RICE: 80

## Cc1c(Cl)cc(F)c(-n2c(=O)cc(C(F)(F)F)n(C)c2=O)c1NC(=O)OCc1ccc(Cl)cc1Cl [4-62]
[1]; rate 63 g ai/ha
  Pre-emerge Herbicidal Activity AMARE: 100
[1]; rate 250 g ai/ha
  Pre-emerge Herbicidal Activity AMARE: 100
[2]; rate 63 g ai/ha
  Pre-emerge Herbicidal Activity ECHCG: 10
[2]; rate 250 g ai/ha
  Pre-emerge Herbicidal Activity ECHCG: 60
[3]; rate 63 g ai/ha
  Pre-emerge Herbicidal Activity SETVI: 80
[3]; rate 250 g ai/ha
  Pre-emerge Herbicidal Activity SETVI: 100
[4]; rate 63 g ai/ha
  Pre-emerge Herbicidal Activity IPOHE: 60
[4]; rate 250 g ai/ha
  Pre-emerge Herbicidal Activity IPOHE: 30
[5]; rate 63 g ai/ha
  Pre-emerge Herbicidal Activity SORHA: 10
[5]; rate 250 g ai/ha
  Pre-emerge Herbicidal Activity SORHA: 50
[6]; rate 63 g ai/ha
  Pre-emerge Herbicidal Activity CHEAL: 100
[6]; rate 250 g ai/ha
  Pre-emerge Herbicidal Activity CHEAL: 100
[7]; rate 63 g ai/ha
  Pre-emerge Herbicidal Activity DIGSA: 50
[7]; rate 250 g ai/ha
  Pre-emerge Herbicidal Activity DIGSA: 90
[8]; rate 63 g ai/ha
  Pre-emerge Herbicidal Activity CASOB: 50
[8]; rate 250 g ai/ha
  Pre-emerge Herbicidal Activity CASOB: 100
[9]; rate 63 g ai/ha
  Pre-emerge Herbicidal Activity ABUTH: 100
[9]; rate 250 g ai/ha
  Pre-emerge Herbicidal Activity ABUTH: 100
[10]; rate 63 g ai/ha
  Pre-emerge Herbicidal Activity CORN: 0
[10]; rate 250 g ai/ha
  Pre-emerge Herbicidal Activity CORN: 10
[11]; rate 63 g ai/ha
  Pre-emerge Herbicidal Activity RICE: 10
[11]; rate 250 g ai/ha
  Pre-emerge Herbicidal Activity RICE: 70
[12]; 63 g ai/ha
  Post-emerge Herbicidal Activity ECHCG: 20
[12]; 250 g ai/ha
  Post-emerge Herbicidal Activity ECHCG: 40
[13]; 63 g ai/ha
  Post-emerge Herbicidal Activity SETVI: 60
[13]; 250 g ai/ha
  Post-emerge Herbicidal Activity SETVI: 80
[14]; 63 g ai/ha
  Post-emerge Herbicidal Activity IPOHE: 100
[14]; 250 g ai/ha
  Post-emerge Herbicidal Activity IPOHE: 100
[15]; 63 g ai/ha
  Post-emerge Herbicidal Activity SORHA: 30
[15]; 250 g ai/ha
  Post-emerge Herbicidal Activity SORHA: 30
[16]; 63 g ai/ha
  Post-emerge Herbicidal Activity CHEAL: 100
[16]; 250 g ai/ha
  Post-emerge Herbicidal Activity CHEAL: 100
[17]; 63 g ai/ha
  Post-emerge Herbicidal Activity DIGSA: 10
[17]; 250 g ai/ha
  Post-emerge Herbicidal Activity DIGSA: 50
[18]; 63 g ai/ha
  Post-emerge Herbicidal Activity AMARE: 100
[18]; 250 g ai/ha
  Post-emerge Herbicidal Activity AMARE: 100
[19]; 63 g ai/ha
  Post-emerge Herbicidal Activity CASOB: 90
[19]; 250 g ai/ha
  Post-emerge Herbicidal Activity CASOB: 100
[20]; 63 g ai/ha
  Post-emerge Herbicidal Activity ABUTH: 100
[20]; 250 g ai/ha
  Post-emerge Herbicidal Activity ABUTH: 100
[21]; 63 g ai/ha
  Post-emerge Herbicidal Activity CORN: 30
[21]; 250 g ai/ha
  Post-emerge Herbicidal Activity CORN: 45
[22]; 63 g ai/ha
  Post-emerge Herbicidal Activity RICE: 30
[22]; 250 g ai/ha
  Post-emerge Herbicidal Activity RICE: 30
